From publication PMC10952572, “Improved PIEZO1 agonism through 4‐benzoic acid modification of Yoda1” (British Journal of Pharmacology, 2023)

Assays:
hPIEZO1 = biological target: T1, hPIEZO1 (Homo sapiens, UniProt Q92508); experiment: Pre-treatment with analogue before Yoda1 stimulus, Ca2+ assay in hPIEZO1-TREx cells; format: cell-based; conditions: hPIEZO1-TREx, 10 μM compound 30 min pretreatment before 2 μM Yoda1
T1 construct: expressed in transfected cells
Procedure: HEK 293‐TREx cells and their stably transfected derivatives or transiently transfected HEK 293 or HeLa cells were seeded at a density of 7.5 × 10^4 cells per well into poly‐D‐lysine‐coated 96‐well plates. The plates were either commercially pre‐coated with poly‐D‐lysine (Greiner Bio‐One #655946) or (Greiner Bio‐One #655090) were coated in‐house with 35 μl of a 10 μg·ml^−1 poly‐D‐lysine (Bio‐Techne, Cultrex # 3439‐100‐01) in sterile deionised water per well for at least 24 h and rinsed three times with 100 μl per well sterile D‐PBS before addition of cells. HUVECs were seeded into tissue culture‐treated 96‐well plates (Greiner Bio‐One #655090) at a density of either 2.5 × 10^4 cells 24 h before experimentation or 1.25 × 10^4 cells 48 h before experimentation. Cells were incubated with 2 μM Fura‐2‐AM (Molecular Probes™) in the presence of 0.01% (wt./vol.) pluronic F127 (Sigma‐Aldrich #P2443) in standard bath solution (SBS) for 1 h at 37°C. Cells were washed with SBS for 30 min at room temperature. Alternatively, if inhibitors were being tested, these were added at this time, immediately following a wash in SBS. (−)‐Englerin A (Akbulut et al., [2015]) was used in SBS containing 0.01% pluronic acid as a dispersing agent to minimise aggregation of compound. Unless otherwise stated, the final concentration of DMSO was 0.2% (vol./vol). Working 2000× stock solutions of test compounds were freshly made in DMSO and diluted 1000‐fold in SBS during the 30 min SBS wash/inhibitor pre‐incubation period to obtain 2× solutions for injection. When testing the highest concentration of Yoda1, KC159 and KC289 (30 μM), the final DMSO concentration was 0.6% (vol./vol.). Measurements were made at room temperature on a 96‐well fluorescence plate reader (FlexStation 3, Molecular Devices, Sunnyvale, CA, USA) controlled by SoftMax Pro software v7.0.3. Recipient wells containing 80 μl SBS/0.2% (vol./vol.) DMSO vehicle or inhibitor compound received 80 μl 2× compound at an injection rate of 1 μl·s^−1, and the pipette introduced liquids from a height setting of 70 μl. No trituration was performed. For recordings using Fura‐2, the change in intracellular Ca was indicated as the ratio of Fura‐2 emission (510 nm) intensities at 340 and 380 nm excitation. Photomultipliers were set to medium sensitivity. SBS contained 130 mM NaCl, 5 mM KCl, 8 mM D‐glucose, 10 mM HEPES, 1.2 mM MgCl2 and 1.5 mM CaCl2, and the pH was adjusted to 7.4 with NaOH. The solution was filtered through a 0.2 μm bottle‐top filter prior to use and handled aseptically thereafter.
In view of the effect of Dooku1 described above, we tested if there are inhibitory actions of the new Yoda1 analogues by pre‐treating cells at 10 μM for 30 min prior to adding 2 μM Yoda1 (Figures 9 and S9, SI 1). All except KC157 and KC161 inhibited the action of Yoda1 on hPIEZO1 channels (Figures 9a and S9, SI 1). […] KC159 and KC289 were agonists, and so they may inhibit the effect of Yoda1 simply by pre‐activating the channels. KC158, KC161 and KC162 are also agonists of mPIEZO1 channels (Figure 3). […] Only the 2‐benzoic acid analogue (KC157) lacks agonist or antagonist properties.

[1] = test system: 30 proteins including ion channels and receptors; experiment: Eurofins Hit Profiling Screen PP70: remaining targets; format: binding; conditions: 5 μM; targets other than A2A and EP4
Procedure: These experiments were performed by Eurofins Scientific, and the methods below are from this company's information. Membrane protein/membrane amounts may have varied, and the concentrations used were adjusted as necessary. KC289 was tested at 5 μM.

[2] = biological target: T2, PIEZO1 channels endogenously expressed in HUVECs (Homo sapiens, UniProt Q92508); experiment: Intracellular Ca2+ measurement in HUVECs; format: cell-based; conditions: peak ΔCa2+i, Hill fit, read-out: EC50 (estimated concentration for 50% effect)
T2 construct: HUVECs, which are a physiologically relevant cell type that endogenously expresses PIEZO1 channels; host or cells: HUVEC
Procedure: Human umbilical vein endothelial cells (HUVECs) purchased from PromoCell (#C‐12203) were maintained in endothelial cell […] medium 2 (ECGM‐2, PromoCell #C‐22111) supplemented with 500 pg·ml^−1 recombinant human vascular endothelial growth factor 165, 10 ng·ml^−1 recombinant human basic fibroblast growth factor, 200 ng·ml^−1 hydrocortisone, 22.5 μg·ml^−1 heparin and 2% (vol./vol.) fetal calf serum. […] After washing the cell monolayer with D‐PBS (Sigma #D8537), 2 ml pre‐warmed 0.05% trypsin– EDTA (Gibco #25300054) was added to 75 cm^2 flasks until the cells had detached (between 2 and 5 min at 37°C). Complete ECGM‐2 (8 ml) was added to inhibit the trypsin, the cells were counted and their density was adjusted before seeding into fresh vessels for maintenance cultivation or experimental purposes. The medium for maintenance of cultures was completely refreshed every 48 h. HUVECs were used for experiments after a minimum of three and a maximum of five passages. […]
HEK 293‐TREx cells and their stably transfected derivatives or transiently transfected HEK 293 or HeLa cells were seeded at a density of 7.5 × 10^4 cells per well into poly‐D‐lysine‐coated 96‐well plates. […] Measurements were made at room temperature on a 96‐well fluorescence plate reader (FlexStation 3, Molecular Devices, Sunnyvale, CA, USA) controlled by SoftMax Pro software v7.0.3. […]

mPIEZO2 = biological target: T3, mPIEZO2 (Mus musculus, UniProt Q8CD54); experiment: Intracellular Ca2+ measurement in HEK 293 cells overexpressing mPIEZO2; format: cell-based; conditions: 10 μM, versus non-transfected cells
T3 construct: host or cells: HEK 293, transient
T3 sequence (Q8CD54 whole entry): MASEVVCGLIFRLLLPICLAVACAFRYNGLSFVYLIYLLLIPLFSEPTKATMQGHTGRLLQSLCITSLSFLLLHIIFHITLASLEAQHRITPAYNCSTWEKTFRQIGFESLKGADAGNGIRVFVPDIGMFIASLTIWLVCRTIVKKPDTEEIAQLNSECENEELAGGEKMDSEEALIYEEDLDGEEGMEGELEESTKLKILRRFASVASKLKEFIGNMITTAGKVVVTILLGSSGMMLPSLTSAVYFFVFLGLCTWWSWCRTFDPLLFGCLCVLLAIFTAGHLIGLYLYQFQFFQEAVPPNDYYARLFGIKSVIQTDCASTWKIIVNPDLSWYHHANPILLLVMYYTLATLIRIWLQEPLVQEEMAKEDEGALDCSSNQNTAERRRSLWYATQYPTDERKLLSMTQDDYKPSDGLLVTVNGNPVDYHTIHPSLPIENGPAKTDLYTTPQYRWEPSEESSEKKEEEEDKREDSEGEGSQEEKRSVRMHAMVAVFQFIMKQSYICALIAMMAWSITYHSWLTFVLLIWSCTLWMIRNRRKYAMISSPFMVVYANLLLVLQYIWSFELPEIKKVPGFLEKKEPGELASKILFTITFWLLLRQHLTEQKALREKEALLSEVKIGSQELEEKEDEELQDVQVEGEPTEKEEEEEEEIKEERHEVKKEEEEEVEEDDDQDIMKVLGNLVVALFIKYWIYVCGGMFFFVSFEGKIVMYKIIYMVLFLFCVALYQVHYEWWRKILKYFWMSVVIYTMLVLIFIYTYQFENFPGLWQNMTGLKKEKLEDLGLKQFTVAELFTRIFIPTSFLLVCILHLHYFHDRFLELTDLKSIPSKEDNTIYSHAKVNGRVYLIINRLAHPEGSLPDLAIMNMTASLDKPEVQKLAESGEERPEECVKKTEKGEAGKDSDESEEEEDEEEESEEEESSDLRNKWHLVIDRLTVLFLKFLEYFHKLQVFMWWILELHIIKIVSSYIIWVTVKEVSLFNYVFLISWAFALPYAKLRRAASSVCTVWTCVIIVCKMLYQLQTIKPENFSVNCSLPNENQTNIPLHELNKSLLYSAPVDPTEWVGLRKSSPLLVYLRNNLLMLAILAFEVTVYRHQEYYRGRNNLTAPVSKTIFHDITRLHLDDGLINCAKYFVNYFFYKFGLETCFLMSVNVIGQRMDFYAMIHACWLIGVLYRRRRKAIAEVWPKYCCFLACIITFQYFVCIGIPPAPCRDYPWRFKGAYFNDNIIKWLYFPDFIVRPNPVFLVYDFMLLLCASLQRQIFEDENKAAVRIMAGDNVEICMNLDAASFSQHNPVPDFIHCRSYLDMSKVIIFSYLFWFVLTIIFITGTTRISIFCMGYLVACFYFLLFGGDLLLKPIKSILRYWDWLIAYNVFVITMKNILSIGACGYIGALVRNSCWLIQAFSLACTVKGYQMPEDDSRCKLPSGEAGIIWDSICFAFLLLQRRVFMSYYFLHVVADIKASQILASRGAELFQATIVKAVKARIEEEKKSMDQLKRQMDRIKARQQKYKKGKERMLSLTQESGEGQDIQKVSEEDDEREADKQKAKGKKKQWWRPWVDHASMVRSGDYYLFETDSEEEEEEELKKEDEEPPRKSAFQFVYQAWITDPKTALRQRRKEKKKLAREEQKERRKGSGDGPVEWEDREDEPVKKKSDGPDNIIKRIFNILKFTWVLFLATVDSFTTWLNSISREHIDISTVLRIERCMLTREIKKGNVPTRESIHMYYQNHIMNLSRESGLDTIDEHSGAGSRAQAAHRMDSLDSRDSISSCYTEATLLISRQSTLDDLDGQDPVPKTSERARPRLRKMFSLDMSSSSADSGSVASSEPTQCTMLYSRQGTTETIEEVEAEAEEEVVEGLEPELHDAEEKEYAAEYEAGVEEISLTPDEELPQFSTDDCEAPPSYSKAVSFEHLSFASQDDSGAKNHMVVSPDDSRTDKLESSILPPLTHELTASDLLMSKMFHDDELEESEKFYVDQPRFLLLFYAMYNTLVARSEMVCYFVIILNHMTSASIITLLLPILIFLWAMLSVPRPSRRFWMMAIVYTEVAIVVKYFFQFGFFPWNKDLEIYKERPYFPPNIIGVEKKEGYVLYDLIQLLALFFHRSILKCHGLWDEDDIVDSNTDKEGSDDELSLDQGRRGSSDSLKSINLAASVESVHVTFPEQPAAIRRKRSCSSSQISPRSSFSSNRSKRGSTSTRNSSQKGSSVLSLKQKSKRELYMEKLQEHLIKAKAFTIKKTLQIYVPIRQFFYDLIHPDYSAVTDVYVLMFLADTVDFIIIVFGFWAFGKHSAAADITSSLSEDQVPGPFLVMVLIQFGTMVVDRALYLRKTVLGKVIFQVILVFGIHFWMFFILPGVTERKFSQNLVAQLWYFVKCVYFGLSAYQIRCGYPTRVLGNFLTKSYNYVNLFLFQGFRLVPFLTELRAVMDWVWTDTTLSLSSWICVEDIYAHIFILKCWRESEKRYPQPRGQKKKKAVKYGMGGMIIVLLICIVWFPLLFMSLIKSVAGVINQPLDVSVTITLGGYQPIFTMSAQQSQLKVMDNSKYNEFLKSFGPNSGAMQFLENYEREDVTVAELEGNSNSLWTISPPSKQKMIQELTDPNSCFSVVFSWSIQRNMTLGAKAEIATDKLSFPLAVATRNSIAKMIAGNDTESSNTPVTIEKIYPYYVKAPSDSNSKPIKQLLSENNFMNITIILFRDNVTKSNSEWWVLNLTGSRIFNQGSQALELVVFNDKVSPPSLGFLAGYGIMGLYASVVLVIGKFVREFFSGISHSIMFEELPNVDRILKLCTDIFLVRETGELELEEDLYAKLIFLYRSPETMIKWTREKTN
Procedure: mPIEZO2 pCMV‐Sport6 was a gift from Ardem Patapoutian (Coste et al., [2015]), obtained via Addgene (Addgene plasmid #81073; http://n2t.net/addgene:81073; RRID:Addgene_81073). It was sequenced for validation. Transient transfection of the plasmid was achieved using Lipofectamine 3000 in HEK 293 cells, 48 h prior to measurements being made.
HEK 293‐TREx cells and their stably transfected derivatives or transiently transfected HEK 293 or HeLa cells were seeded at a density of 7.5 × 10^4 cells per well into poly‐D‐lysine‐coated 96‐well plates. The plates were either commercially pre‐coated with poly‐D‐lysine (Greiner Bio‐One #655946) or (Greiner Bio‐One #655090) were coated in‐house with 35 μl of a 10 μg·ml^−1 poly‐D‐lysine (Bio‐Techne, Cultrex # 3439‐100‐01) in sterile deionised water per well for at least 24 h and rinsed three times with 100 μl per well sterile D‐PBS before addition of cells. HUVECs were seeded into tissue culture‐treated 96‐well plates (Greiner Bio‐One #655090) at a density of either 2.5 × 10^4 cells 24 h before experimentation or 1.25 × 10^4 cells 48 h before experimentation. […] Measurements were made at room temperature on a 96‐well fluorescence plate reader (FlexStation 3, Molecular Devices, Sunnyvale, CA, USA) controlled by SoftMax Pro software v7.0.3. […]

Microsomal half-life = format: in vitro ADME; conditions: mouse liver microsomes; for half-life at 1 μM: 1 μM compound
Procedure: Compound half‐lives were measured by Malvern Panalytical (UK). Briefly, microsomal mouse liver microsomes (1 mg protein·ml^−1) were pre‐incubated with NADPH cofactor solution at 37°C. Biotransformation was initiated by addition and mixing of 1 μM test compound in a final volume of 350 μl; 25 μl aliquots were removed at 5 min intervals for 35 min and quenched in 300 μl ice‐cold methanol containing internal standard. The protein in the samples was then precipitated by centrifugation at 4°C, and the supernatant was analysed by LC–MS/MS to quantify the test parent compound remaining at each time point.

Structure (SMILES)	2 μM Yoda1-evoked peak ΔCa2+i (ΔF340/380), median fold difference compared to DMSO pretreatment (hPIEZO1) [fold]	Binding to the other proteins of the screen [1]	EC50 [2] [nM]	Ca2+ elevations in cells overexpressing mPIEZO2 (mPIEZO2)	Microsomal half-life relative to Yoda1 (Microsomal half-life)	half-life at 1 μM (Microsomal half-life) [min]
O=C([O-])c1ccc(-c2nnc(SCc3c(Cl)cccc3Cl)s2)cc1.[K+] [KC289]	−2.5	little or no binding	1140	not different from background signals in non‐transfected cells	at least 20 times	24.6
O=C(O)c1ccc(-c2nnc(SCc3c(Cl)cccc3Cl)s2)cc1 [KC159]	−1.7		2280	not different from background signals in non‐transfected cells	at least 20 times	29.6
